Measured values taken from patent US11964984B2, “TXNIP-TRX complex inhibitors and methods of using the same” (CITY OF HOPE, priority 2020, dated 2024).

Tests used:
TXNIP mRNA = TXNIP mRNA expression in THP1 cells under 25 mM glucose (RT-PCR); type: cell-based, human
Procedure: FIGS. 2A-2B. FIG. 2A: C30 and C38 inhibited TXNIP mRNA expression in THP1 cells. THP1 cells were cultured under 25 mM glucose with the indicated concentrations of compounds for 72 hours. Cells were then collected for total RNA preparation. RT-PCR was performed, and data shown are the mean±SEM from triplicates. Statistical analysis was performed using one-way ANOVA, *p<0.0001. FIG. 2B: C30 and C38 inhibited TNF-α mRNA expression in THP1 cells. THP1 cells were cultured under 25 mM glucose with various concentrations of compounds as indicated for 72 hours and collected for total RNA preparation. RT-PCR was performed, and data shown are the mean±SEM from triplicates. Statistical analysis was performed using one-way ANOVA: *<0.02; **<0.0001.
FIG. 6. C38 analogues effects on TXNIP mRNA expression in THP1 cells. THP1 cells were cultured under 25 mM glucose with 2.5 uM of compounds for 72 h. Total RNA was collected. RT-PCR was performed in triplicate and data shown are the mean±SEM. Statistical analysis was performed using one-way ANOVA: *p<0.0001.
FIG. 7. C38 and analogue E2 effects on TXNIP mRNA levels in THP cells. THP1 cells were cultured under 25 mM glucose with several concentration of C38 and E2 as indicated for 72 hours. Total RNA was prepared. RT-PCR was performed in triplicate and data shown are the mean±SEM. Statistical analysis was performed for each column vs. without compound control using one-way ANOVA: *p<0.0001.
C30 and C38 inhibited TXNIP mRNA expression in THP1 cells.
Discovery of lead compound analogues. A search of chemical libraries was performed in the interest of identifying possible lead compound analogues. Analogues to C38 were identified. To determine the properties of the analogues, we treated THP1 cells with the E batch compounds for three days, prepared RNA and measured TXNIP mRNA levels.
RNA extraction and quantitative RT-PCR. RNA was extracted using the Direct-zol™ RNA MiniPrep Plus (Zymo Research). Reverse transcription of RNA samples into cDNA was performed using the GeneAmp RNA PCR Kit (Applied Biosystems), dNTP (from Roche Applied Science), Rnase inhibitor, MULV Reverse Transcriptase and Random hexamers reagent (all from Invitrogen). Diluted cDNA was quantified using real-time PCR performed with Power SYBR Green qPCR MasterMix (Applied Biosystem) and 7500 real-time PCR system (Applied Biosystems). The HPRT1 gene was used as an internal control.

TXNIP = conditions: literature (Nature Med. 2018); cited from earlier work

SMILES | TXNIP mRNA expression (C38 analogues screen) (TXNIP mRNA; 2.5 uM compound, 72 h) | TXNIP mRNA levels, E2 compared with C38 (TXNIP mRNA; several concentrations, 72 hours) | expression of TXNIP (TXNIP)
COc1ccc(CCNc2ncnc3c2oc2ccccc23)cc1OC [Compound E2] | strongly inhibited TXNIP mRNA expression | moderately better than C38 | –
COc1ccc(CCN(C)CCCC(C#N)(c2ccc(OC)c(OC)c2)C(C)C)cc1OC (stereo not drawn) [Verapamil] | – | – | inhibit the expression of TXNIP
